The results in this text go back to patent US10654868B2, “Dihydropyrazole azepine compound serving as Akt inhibitor” (HARBIN ZHENBAO PHARMACEUTICAL CO., LTD., priority 2016, dated 2020).

One assay deals with T1, Akt2 (Homo sapiens, UniProt P31751).
T1 construct: purchased life technology lot 28870GG (lot number only, catalogue number not given)
Nature of the assay: Akt2 kinase inhibition, LANCE TR-FRET. Type of assay: biochemical. The settings on record: Akt2 2 nM, ATP 360 uM, 90 min at room temperature. The procedure: (§1) Study 1: The Inhibitory Effect of the Compounds on the Activity of Akt1, Akt2 and Akt3
Akt2 protein (life technology # lot 28870GG)
(§2) In this experiment, a homogeneous time-resolved fluorescence […] energy transfer (LANCE TR-FRET®) method was used. In the assay plate, enzymes, biotinylated polypeptide substrates and compound to be tested were mixed, and ATP was added to initiate the reaction and the mixture was incubated. After that, EDTA was added to terminate the reaction while an Eu-labeled antibody was added to carry out the reaction and the reaction was then detected. The assay plate was analyzed by PE company's Envision, and the analysis mode was TR-FRET. The data were represented by fluorescence signals at 665 nm and 615 nm, respectively.
(§3) Compound formulation: compound to be tested and the reference compound were diluted with 100% DMSO, the initial concentration of the compound was 10 uM, and diluted by 10 times in a 3-fold gradient. Transfer the compound to the cell plate and duplicate each well.
(§4) Kinase assay: the enzyme and substrate were mixed with different concentrations of pre-diluted compounds. […] Leave at room temperature for 15 min and diplicate each concentration. ATP was added, and the final concentrations were 36 uM, 360 uM and 160 uM in Akt1, Akt2, and Akt3 kinase reactions, respectively, and the reaction was carried out for 90 min at room temperature (in which negative and positive controls were set). After the reaction was completed, the antibody was added and the mixture was detected, and the cells were incubated for 60 min at room temperature, and then collected by Evnvision. Data analysis and fitting according to *Lfit5 software.
In general terms: In TR-FRET formats the signal depends on donor and acceptor labels being close together.

A further assay concerns LNCaP cells. Nature of the assay: LNCaP cell activity, CellTiter-Glo live cell detection. Type of assay: cell-based. Conditions: Homo sapiens, 72 h, 1000 cells per well, incubated 3 days, starting concentration 10 uM. The method, then:
Study 2: inhibitory effects of compounds on LNCaP cell activity
The amount of ATP directly reflects the number and the state of the cells, and the number of live cells can be detected by quantitatively measuring ATP. The live cell assay kit contains luciferase and its substrate. Through the participation of ATP, luciferase can catalyze the substrate, emit a stable optical signal, and the amount of ATP in the cell was determined by detecting the intensity of the signal. Wherein, the optical signal is proportional to the amount of ATP in the cell, and ATP is positively correlated with the number of live cells, so that the cell proliferation can be detected. The assay board is analyzed by PE company's Envision.
LNCaP cell was separately seeded in a 384-well plate, each well contains 1000 cells. The cell plate was placed in a carbon dioxide incubator and incubated overnight.
A duplicated experiment was performed with 10 concentrations of compound in a 3-fold dilution with Bravo.
Compound was transferred to the cell plate with a starting concentration of 10 uM. The cell plate was incubated in a carbon dioxide incubator for 3 days.
The Promega CellTiter-Glo reagent was added to the cell plate and incubated for 10 min at room temperature to stabilize the optical signal. Read the data by a PerkinElmer Envision multi-label analyzer.

Another assay has as its target T2, Akt3 (Homo sapiens, UniProt Q9Y243).
T2 construct: purchased life technology lot 1715050B (lot number only, catalogue number not given)
Nature of the assay: Akt3 kinase inhibition, LANCE TR-FRET. Type of assay: biochemical. The settings on record: Akt3 2 nM, ATP 160 uM, 90 min at room temperature. The method, then:
as §1
Akt3 protein (life technology # lot 1715050B)
as §2, §3, §4

A further assay has as its target T3, Akt1 (Homo sapiens, UniProt P31749).
T3 construct: purchased life technology lot11629928C (lot number only, catalogue number not given)
Nature of the assay: Akt1 kinase inhibition, LANCE TR-FRET. It counts as biochemical. The method, then:
as §1
Akt1 protein (life technology # lot11629928C)
as §2, §3, §4

T3 sequence (P31749 whole entry): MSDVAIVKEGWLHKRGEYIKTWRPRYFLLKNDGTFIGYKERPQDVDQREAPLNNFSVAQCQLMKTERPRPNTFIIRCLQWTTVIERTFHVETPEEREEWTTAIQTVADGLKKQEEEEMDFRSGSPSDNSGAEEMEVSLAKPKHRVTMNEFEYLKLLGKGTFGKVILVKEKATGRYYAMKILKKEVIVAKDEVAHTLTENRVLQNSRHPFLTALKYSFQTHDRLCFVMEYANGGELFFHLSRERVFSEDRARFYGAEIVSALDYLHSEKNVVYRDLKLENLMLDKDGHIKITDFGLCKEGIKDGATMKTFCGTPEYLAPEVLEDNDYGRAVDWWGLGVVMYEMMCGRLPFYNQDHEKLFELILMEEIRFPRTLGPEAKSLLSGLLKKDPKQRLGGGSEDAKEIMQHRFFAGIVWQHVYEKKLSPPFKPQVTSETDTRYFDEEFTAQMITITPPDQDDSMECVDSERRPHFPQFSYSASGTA
T1 sequence (P31751 whole entry): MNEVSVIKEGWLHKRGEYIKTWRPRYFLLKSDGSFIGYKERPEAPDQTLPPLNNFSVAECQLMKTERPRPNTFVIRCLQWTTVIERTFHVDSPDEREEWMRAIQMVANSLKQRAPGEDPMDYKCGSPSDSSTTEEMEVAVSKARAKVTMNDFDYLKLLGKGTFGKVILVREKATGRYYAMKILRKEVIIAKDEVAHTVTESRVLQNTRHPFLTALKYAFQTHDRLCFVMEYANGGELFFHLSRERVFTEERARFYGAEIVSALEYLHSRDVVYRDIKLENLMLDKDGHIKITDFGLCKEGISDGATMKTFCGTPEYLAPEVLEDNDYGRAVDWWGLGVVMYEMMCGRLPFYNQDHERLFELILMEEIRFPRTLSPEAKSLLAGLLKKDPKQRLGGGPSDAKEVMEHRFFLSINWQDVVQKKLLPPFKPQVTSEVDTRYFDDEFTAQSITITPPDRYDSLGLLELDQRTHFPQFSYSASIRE
T2 sequence (Q9Y243 whole entry): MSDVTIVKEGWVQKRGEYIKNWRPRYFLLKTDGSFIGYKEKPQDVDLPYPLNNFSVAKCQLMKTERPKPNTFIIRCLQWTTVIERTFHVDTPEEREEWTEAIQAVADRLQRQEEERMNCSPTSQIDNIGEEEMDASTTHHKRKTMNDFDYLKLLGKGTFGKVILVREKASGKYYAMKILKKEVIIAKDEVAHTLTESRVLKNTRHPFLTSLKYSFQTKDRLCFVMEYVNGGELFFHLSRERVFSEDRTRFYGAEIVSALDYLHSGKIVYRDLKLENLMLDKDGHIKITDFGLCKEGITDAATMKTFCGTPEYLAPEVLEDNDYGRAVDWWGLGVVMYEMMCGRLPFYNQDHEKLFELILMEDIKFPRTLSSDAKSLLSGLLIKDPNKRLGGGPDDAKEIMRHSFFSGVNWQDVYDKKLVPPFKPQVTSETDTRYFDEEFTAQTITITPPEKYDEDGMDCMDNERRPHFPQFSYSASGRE

A word on the IC50: it is the concentration that gives 50% inhibition. In the case of `COC1CCn2ncc(Cl)c2-c2cc(C(=O)N[C@H](CN)Cc3cccc(F)c3)sc21` (stereo partly drawn) [Embodiment 30], the IC50 against Akt2 came to 281 nM; in the assay with LNCaP cells it was 654 nM; at Akt3 it was 485 nM; against Akt1, 12.4 nM.

Consider `NC[C@H](Cc1cccc(F)c1)NC(=O)c1cc2c(s1)C(=O)CCn1ncc(Cl)c1-2` [Embodiment 31], for which the IC50 against Akt2 came to 3130 nM; in the assay on LNCaP cells it was 5710 nM; against Akt3 it was 819 nM; against Akt1 it was 124 nM.

In the case of `NC[C@H](Cc1cccc(F)c1)NC(=O)c1cc2c(s1)C(O)CCn1ncc(Cl)c1-2` (stereo partly drawn) [Embodiment 32], the IC50 on Akt2 was 2930 nM; with LNCaP cells it was more than 10000 nM; on Akt3 it was 814 nM; against Akt1, 117 nM.

For `NC[C@H](Cc1cccc(F)c1)NC(=O)c1cc2c(s1)C(F)(F)CCn1ncc(Cl)c1-2` [Embodiment 33], the IC50 came to 490 nM against Akt2, 1750 nM with LNCaP cells, 108 nM against Akt3 and 13 nM against Akt1.

Turning to `CNC[C@H](Cc1cccc(F)c1)NC(=O)c1cc2c(s1)CCCn1ncc(Cl)c1-2` [Embodiment 34], the IC50 against Akt2 was 983 nM; with LNCaP cells, 2360 nM; on Akt3, 513 nM; on Akt1 it was 36 nM.

For the compound `Cc1cnn2c1-c1cc(C(=O)N[C@H](CN)Cc3ccc(F)c(F)c3)sc1CCC2` [Embodiment 35], the IC50 came to 22 nM against Akt2, 150 nM in the assay with LNCaP cells, 34 nM on Akt3 and 0.43 nM on Akt1.

Take `NC[C@H](Cc1cccc(F)c1)NC(=O)c1cc2n(n1)CCCn1ncc(Cl)c1-2` [Embodiment 36]: the IC50 was found to be 235 nM on Akt2, 902 nM in the assay on LNCaP cells, 195 nM against Akt3 and 9.78 nM at Akt1.

As to `NC[C@H](Cc1ccc(F)c(F)c1)NC(=O)c1cc2c(s1)OCCn1ncc(Cl)c1-2` [Embodiment 38], the IC50 at Akt2 stood at 57 nM; in the assay on LNCaP cells it was 118 nM; against Akt3, 68 nM; against Akt1, 0.36 nM.

For `Cc1cnn2c1-c1cc(C(=O)N[C@H](CN)Cc3ccc(F)c(F)c3)sc1OCC2` [Embodiment 39], the IC50 came to 76 nM against Akt2, 144 nM in the assay with LNCaP cells, 122 nM against Akt3 and 1.5 nM at Akt1.

With `Cc1cnn2c1-c1cc(C(=O)N[C@H](CN)Cc3cc(F)cc(F)c3)sc1OCC2` [Embodiment 40], the IC50 turned out to be 66 nM against Akt2, 87 nM in the assay with LNCaP cells, 170 nM against Akt3 and 0.87 nM against Akt1.

Consider `NC[C@H](Cc1cc(F)cc(F)c1)NC(=O)c1cc2c(s1)OCCn1ncc(Br)c1-2` [Embodiment 41], for which the IC50 against Akt2 is 39 nM; with LNCaP cells, 62 nM; against Akt3, 57 nM; against Akt1, 1.45 nM.

Turning to `N#Cc1cnn2c1-c1cc(C(=O)N[C@H](CN)Cc3ccc(F)c(F)c3)sc1OCC2` [Embodiment 42], the IC50 on Akt2 turned out to be 900 nM; in the assay on LNCaP cells, 663 nM; on Akt3 it was 416 nM; at Akt1 it was 27.5 nM.
